Results reported in publication PMC8580050, “Improvement of the antimicrobial potency, pharmacokinetic and pharmacodynamic properties of albicidin by incorporation of nitrogen atoms” (Chemical Science, 2021).
In brackets after ≈: the same amount, converted by molar mass.

Columns and labels:
E. coli DSM 1116 = test: MIC determination (broth microdilution); assay type: cell-based, Escherichia coli; conditions: Escherichia coli, DSM1116; E. coli DSM 1116; read-out: MIC
Procedure: (§1) 1.1.1 In vitro experiments
(§2) Determination of Minimal inhibitory concentrations (MIC)
(§3) Approved Standard M07-A9.1
(§4) CFU mL-1. […] Albicidin and […]
(§5) and serially diluted in DMSO (100%). […]
(§6) in 0.1 N HCL, respectively.
(§7) One row of each well plate served as a […]
(§8) sterility control (only MHB II-media). […]
(§9) adding 5 µL DMSO to several wells. […]
(§10) for growth inhibition by naked eye.
(§11) Microorganisms and Cell Cultures (DSMZ): […]

S. Typhimurium TA100 = test: MIC determination (broth microdilution); assay type: cell-based, Salmonella typhimurium; conditions: Salmonella enterica; S. Typhimurium TA100; read-out: MIC
Procedure: as §1, §2, §3, §4, §5, §6, §7, §8, §9, §10, §11

B. subtilis DSM 10 = test: MIC determination (broth microdilution); assay type: cell-based; conditions: Bacillus subtilis, DSM10; B. subtilis DSM 10; read-out: MIC
Procedure: as §1, §2, §3, §4, §5, §6, §7, §8, §9, §10, §11

E. coli BW25113 = test: MIC determination (broth microdilution); assay type: cell-based; conditions: Escherichia coli
Procedure: as §1, §2, §3, §4, §5, §6, §7, §8, §9, §10, §11

M. luteus DSM1790 = test: MIC determination (broth microdilution); assay type: cell-based, Micrococcus luteus; conditions: Micrococcus luteus; M. luteus DSM1790; read-out: MIC
Procedure: as §1, §2, §3, §4, §5, §6, §7, §8, §9, §10, §11

M. phlei DSM 750 = test: MIC determination (broth microdilution); assay type: cell-based, Mycobacterium phlei; conditions: Mycolicibacterium phlei, DSM750; M. phlei DSM 750; read-out: MIC
Procedure: as §1, §2, §3, §4, §5, §6, §7, §8, §9, §10

[1] = system: E. coli DSM 1116 + 50% Human Serum; test: MIC determination in presence of 50% human serum; assay type: cell-based; conditions: Escherichia coli, DSM1116; E. coli DSM 1116 + 50% Human Serum; read-out: MIC
Excerpt: This investigation was completed by assessment of the antibacterial activity in presence of human plasma (50%) (Table 1), since high plasma protein binding can severely impair antibacterial activity and thus efficacy.
as §1, §2, §3, §4, §5, §6, §7, §8, §9, §10, §11

E. coli DNA gyrase = target: T1, E. coli DNA gyrase (Escherichia coli, UniProt P0AES4+P0AES6); test: E. coli gyrase supercoiling inhibition assay; assay type: biochemical; design: key: ↑: for stronger inhibition; ≈: for equal inhibition; ↓: for diminished inhibition compared to albicidin 1; conditions: constant concentration of 45 nM, compared to albicidin 1
T1 construct: purchased inspiralis Limited, Norwich, UK
Procedure: Escherichia coli Gyrase Supercoiling Inhibition Assay
loaded on an agarose gel.
2-15. […] Addition of DNA
All derivatives were tested at a concentration of […]

DNA gyrase = conditions: read-out: half maximum inhibitory concentration (IC50); cited from earlier work
Gram-negative strains = test: MIC, primary panel; assay type: cell-based; conditions: Salmonella enterica, TYPHIMURIUM
Procedure: as §1, §2, §3, §4, §5, §6, §7, §8, §9, §10
(§12) Microorganisms and Cell Cultures (DSMZ):
Mycobacterium phlei DSM 750
Salmonella typhimurium TA100 was kindly provided by Prof. Dr. Vera Meyer (Technische Universität […]
Brötz-Oesterheldt (Tübingen, Germany)/ Prof. Dr. Heisig (Hamburg, Germany)2 Escherichia coli WT (GK571)
Escherichia coli WT-3-1 (GK796) [gyrA (S83L, D87G)]
Escherichia coli MI (GK572) [gyrA (S83L)] […]
or by Prof. Dr. Werner (Robert-Koch-Institut, Wernigerode, Germany): […]

Gram-positive strains = test: MIC, primary panel; assay type: cell-based
Procedure: as §1, §2, §3, §4, §5, §6, §7, §8, §9, §10, §12
Mycobacterium phlei DSM 750 […]
Dr. Werner (Robert-Koch-Institut, Wernigerode, Germany): […]

Row | Molecule | MIC (E. coli DSM 1116) | MIC (S. Typhimurium TA100) | MIC (B. subtilis DSM 10) | MIC (E. coli BW25113) | MIC (M. luteus DSM1790) | MIC (M. phlei DSM 750) | MIC [1] | E. coli gyrase inhibition (E. coli DNA gyrase) | IC50 (DNA gyrase) | MIC (Gram-negative strains) | MIC (Gram-positive strains)
1 | COc1c(NC(=O)c2ccc(NC(=O)c3ccc(NC(=O)[C@H](Cc4c[nH]nn4)NC(=O)c4ccc(NC(=O)/C(C)=C/c5ccc(O)cc5)cn4)cc3)c(OC)c2O)ccc(C(=O)O)c1O [Compound 5] | 0.031 µg/mL (≈ 0.035 µM) | 0.031 µg/mL (≈ 0.035 µM) | 0.25 µg/mL (≈ 0.282 µM) | 0.031 µg/mL (≈ 0.035 µM) | 0.5 µg/mL (≈ 0.564 µM) | 4 µg/mL (≈ 4.52 µM) | 2 µg/mL | ↑ | – | – | –
2 | cystobactamid | – | – | – | – | – | – | – | – | 80 nM | – | –
3 | COc1c(NC(=O)c2ccc(NC(=O)c3ccc(NC(=O)[C@H](Cc4c[nH]nn4)NC(=O)c4ccc(NC(=O)/C(C)=C/c5ccc(O)cc5)nc4)cc3)c(OC)c2O)ccc(C(=O)O)c1O [Compound 6] | 0.016 µg/mL (≈ 0.0181 µM) | 0.016 µg/mL (≈ 0.0181 µM) | 0.5 µg/mL (≈ 0.564 µM) | 0.063 µg/mL (≈ 0.0711 µM) | 4 µg/mL (≈ 4.52 µM) | 4 µg/mL (≈ 4.52 µM) | 1 µg/mL | ↓ | – | – | –
4 | COc1c(NC(=O)c2ccc(NC(=O)c3ccc(NC(=O)[C@H](Cc4c[nH]nn4)NC(=O)c4ccc(NC(=O)/C(C)=C/c5ccc(O)cc5)cc4)cc3)cn2)ccc(C(=O)O)c1O [Compound 9] | 0.031 µg/mL (≈ 0.0369 µM) | 0.031 µg/mL (≈ 0.0369 µM) | 1 µg/mL (≈ 1.19 µM) | 0.031 µg/mL (≈ 0.0369 µM) | 1 µg/mL (≈ 1.19 µM) | 1 µg/mL (≈ 1.19 µM) | ≥ 8 µg/mL | ↓ | – | – | –
5 | COc1c(NC(=O)c2ccc(NC(=O)c3ccc(NC(=O)[C@H](Cc4c[nH]nn4)NC(=O)c4ccc(NC(=O)/C(C)=C/c5ccc(O)cc5)cc4)cc3)cc2)ccc(C(=O)O)c1O [Compound 11, reference compound] | 0.063 µg/mL (≈ 0.0751 µM) | 0.063 µg/mL (≈ 0.0751 µM) | 4 µg/mL (≈ 4.77 µM) | 0.031 µg/mL (≈ 0.037 µM) | 8 µg/mL (≈ 9.54 µM) | 4 µg/mL (≈ 4.77 µM) | 4 µg/mL | ≈ | – | – | –
6 | COc1c(NC(=O)c2ccc(NC(=O)c3ccc(NC(=O)[C@H](Cc4c[nH]nn4)NC(=O)c4ccc(NC(=O)/C(C)=C/c5ccccn5)cc4)cc3)c(OC)c2O)ccc(C(=O)O)c1O [Compound 3] | 0.25 µg/mL (≈ 0.287 µM) | 0.125 µg/mL (≈ 0.144 µM) | 4 µg/mL (≈ 4.6 µM) | 0.5 µg/mL (≈ 0.575 µM) | 32 µg/mL (≈ 36.8 µM) | 64 µg/mL (≈ 73.6 µM) | 8 µg/mL | ↓ | – | – | –
7 | COc1c(NC(=O)c2ccc(NC(=O)[C@H](Cc3c[nH]nn3)NC(=O)c3ccc(NC(=O)/C(C)=C/c4ccc(O)cc4)cc3)cc2)ccc(C(=O)Nc2ccc(C(=O)O)nc2)c1O [Compound 12] | 64 µg/mL (≈ 76.2 µM) | 0.125 µg/mL (≈ 0.149 µM) | ≥ 128 µg/mL | ≥ 128 µg/mL | 32 µg/mL (≈ 38.1 µM) | 32 µg/mL (≈ 38.1 µM) | ≥ 8 µg/mL | ↓ | – | > 32 µg/mL | > 32 µg/mL
